Experimental data published in article PMC9607427, “Novel 7-Chloro-(4-thioalkylquinoline) Derivatives: Synthesis and Antiproliferative Activity through Inducing Apoptosis and DNA/RNA Damage” (Pharmaceuticals, 2022).
Like-named read-outs stand apart in the source and are kept apart here.

Legend:
[1] = test system: eight human cancer and 4 non-tumor cell lines; assay: Cytotoxic MTS assay, whole panel of tested cell lines; type: cell-based
Experimental: (§1) In vitro cytotoxic activity of final compounds 5–82 was evaluated after 3 days of incubation against eight cell lines derived from human solid tumors including lung (A549 cells) and colon (HCT116 and HCT116p53−/−) carcinomas, as well as leukemia cell lines (CCRF-CEM, CEM-DNR, K562, and K562-TAX) and osteosarcoma (U2OS cells). For comparison, non-malignant BJ and MRC-5 fibroblasts, and BJLD and MCR-5LD fibroblasts doxorubicin-resistant cell lines were used. Concentrations inhibiting the cell growth by 50% (IC50) were determined using a quantitative metabolic staining with 3-(4,5-dimethylthiazol-2yl)-5-(3-carboxymethoxyphenyl)-2-(4-sulfophenyl)-2H-tetrazolium (MTS) and are summarized in (Table 3).
(§2) Cytotoxic activity was determined by MTS assay following 72 h of incubation. IC50 is the lowest concentration that kills 50% of cells. The standard deviation in cytotoxicity assays is typically up to 20% of the average value. […] The tested cell lines: A549 (lung adenocarcinoma), BJ (noncancerous human fibroblasts from foreskin), BJLD (human lung fibroblast doxorubicin-resistant), CCRF-CEM (childhood T cell acute lymphoblastic leukemia), a daunorubicin-resistant subline of CCRF-CEM cells (CEM-DNR bulk), HCT116 (colorectal carcinoma), HCT116p53−/− (HCT116 with deleted p53 gene), K562 (chronic myeloid leukemia), K562-TAX (chronic myeloid leukemia paclitaxel-resistant subline), MRC-5 (noncancerous human lung fibroblasts), MRC-5LD (noncancerous human lung fibroblasts doxorubicin-resistant), and U2OS (osteosarcoma).
(§3) All cell lines were purchased from the American Tissue Culture Collection (ATCC). The A549 cell line is lung adenocarcinoma. MRC-5 and BJ cell lines were used as a non-tumor control and represent human fibroblasts. (MRC-5 LD and BJLD) are doxorubicin-resistant human lung fibroblast cell lines. The CCRF-CEM line is derived from T lymphoblastic leukemia, evincing high chemosensitivity, whereas K562 represent cells from an […] patient sample with bcr-abl translocation. The daunorubicin-resistant subline of CCRF-CEM cells (CEM-DNR bulk) and paclitaxel-resistant subline K562-TAX were selected in our laboratory by the cultivation of maternal cell lines in increasing concentrations of daunorubicin or paclitaxel, respectively. The CEM-DNR bulk cells overexpress MRP-1 and P-glycoprotein protein, whereas K562-TAX cells overexpress P-glycoprotein only. Both proteins belong to the family of ABC transporters and are involved in the primary and/or acquired multidrug-resistance phenomenon. The U2OS cell line is derived from osteosarcoma, HCT116 is a colorectal tumor cell line and its p53 gene knock-down counterpart (HCT116p53−/−, Horizon Discovery Ltd., Cambridge, UK) is a model of human cancers with p53 mutation frequently associated with poor prognosis. The cells were maintained in nunc/corning 80 cm^2 plastic tissue culture flasks and cultured in a cell culture medium according to ATCC or Horizon recommendations (DMEM/RPMI 1640 with 5 g/L glucose, 2 mM glutamine, 100 U/mL penicillin, […], 10% fetal calf serum, and NaHCO3).
(§4) The activity of compounds was determined using a standard 3-(4,5-dimethylthiazol-2-yl)-5-(3-carboxymethoxyphenyl)-2-(4-sulfophenyl)-2H-tetrazolium (MTS) and it was performed at the Institute of Molecular and Translational Medicine by a robotic platform (High-ResBiosolutions). Cell suspensions were prepared and diluted according to the particular cell type and the expected target cell density (25,000–35,000 cells/mL based on cell growth characteristics). Cells were added by automatic pipettor (30 µL) into 384-well microtiter plates. All tested compounds were dissolved in 100% DMSO and four-fold dilutions of the intended test concentration were added in 0.15 µL aliquots at time zero to the microtiter plate wells by the echo acoustic non-contact liquid handler Echo550 (Labcyte). […]

[2] = test system: K562 (chronic myeloid leukemia); assay: Cytotoxic MTS assay, K562; type: cell-based, human
Experimental: as §1, §2, §3, §4

[3] = test system: HCT116p53−/− (HCT116 with deleted p53 gene); assay: Cytotoxic MTS assay, HCT116p53−/−; type: cell-based, human; conditions: Homo sapiens, HCT-116; MTS, 72 h of incubation; read-out: Cytotoxic activity IC50, HCT116-p53
Experimental: as §1, §2, §3, §4

[4] = Cytotoxic MTS assay, MRC-5LD; type: cell-based, human; conditions: human; MTS, 72 h of incubation; read-out: Cytotoxic activity IC50, MRC5-LD
Experimental: as §1, §2, §3, §4

[5] = test system: CEM-DNR bulk (daunorubicin-resistant subline of CCRF-CEM cells); assay: Cytotoxic MTS assay, CEM-DNR; type: cell-based, human
Experimental: as §1, §2, §3, §4

U2OS (osteosarcoma) = assay: Cytotoxic MTS assay, U2OS; type: cell-based, human
Experimental: as §1, §2, §3, §4

[6] = test system: CCRF-CEM (childhood T cell acute lymphoblastic leukemia); assay: Cytotoxic MTS assay, CCRF-CEM; type: cell-based, human
Experimental: as §1, §2, §3, §4

[7] = test system: HCT116 (colorectal carcinoma); assay: Cytotoxic MTS assay, HCT116; type: cell-based, human
Experimental: as §1, §2, §3, §4

[8] = test system: K562-TAX (chronic myeloid leukemia paclitaxel-resistant subline); assay: Cytotoxic MTS assay, K562-TAX; type: cell-based, human
Experimental: as §1, §2, §3, §4

[9] = test system: A549 (lung adenocarcinoma); assay: Cytotoxic MTS assay, A549; type: cell-based, human
Experimental: as §1, §2, §3, §4

[10] = Cytotoxic MTS assay, MRC-5; type: cell-based, human; conditions: human, MRC-5 cells (noncancerous lung fibroblasts); MTS, 72 h of incubation
Experimental: as §1, §2, §3, §4

[11] = Cytotoxic MTS assay, BJLD; type: cell-based, human; conditions: human, BJLD cells (fibroblasts, doxorubicin-resistant); MTS, 72 h of incubation
Experimental: as §1, §2, §3, §4

Cytotoxic MTS assay, BJ = type: cell-based, human; conditions: human, BJ cells (noncancerous foreskin fibroblasts); MTS, 72 h of incubation
Experimental: as §1, §2, §3, §4

[12] = test system: MRC-5LD (noncancerous human lung fibroblasts doxorubicin-resistant); assay: Cytotoxic MTS assay, MRC-5LD; type: cell-based
Experimental: as §1, §2, §3, §4

[13] = test system: MRC-5 (noncancerous human lung fibroblasts); assay: Cytotoxic MTS assay, MRC-5; type: cell-based
Experimental: as §1, §2, §3, §4

[14] = test system: BJLD (human lung fibroblast doxorubicin-resistant); assay: Cytotoxic MTS assay, BJLD; type: cell-based
Experimental: as §1, §2, §3, §4

[15] = test system: BJ (noncancerous human fibroblasts from foreskin); assay: Cytotoxic MTS assay, BJ; type: cell-based
Experimental: as §1, §2, §3, §4

[16] = Homo sapiens, K562, MTS, 72 h of incubation, read-out: Cytotoxic activity IC50, K562
[17] = Homo sapiens, CEM-DNR, MTS, 72 h of incubation, read-out: Cytotoxic activity IC50, CEM-DNR
[18] = Homo sapiens, U2OS, MTS, 72 h of incubation, read-out: Cytotoxic activity IC50, U2OS
[19] = Homo sapiens, CCRF-CEM, MTS, 72 h of incubation, read-out: Cytotoxic activity IC50, CCRF-CEM
[20] = Homo sapiens, HCT-116, MTS, 72 h of incubation, read-out: Cytotoxic activity IC50, HCT116
[21] = Homo sapiens, K562-Tax, MTS, 72 h of incubation, read-out: Cytotoxic activity IC50, K562-TAX
[22] = Homo sapiens, A549, MTS, 72 h of incubation, read-out: Cytotoxic activity IC50, A549

Structure (SMILES)	IC50 [2, 16]	IC50 [3]	IC50 at 72 h [4]	IC50 [5, 17]	IC50 (U2OS (osteosarcoma); [18])	IC50 [6, 19]	IC50 [7, 20]	IC50 [8, 21]	IC50 [9, 22]	IC50 at 72 h [10]	IC50 at 72 h [11]	IC50 at 72 h (Cytotoxic MTS assay, BJ)	other results
COc1cc(OC)cc(C(=O)OCCC[S+]([O-])c2ccnc3cc(Cl)ccc23)c1 (centres unmarked) [Compound 55, 3-[(7-Chloroquinolin-4-yl)sulfinyl]propyl-,5-dimethoxybenzoate]	–	–	–	–	–	–	–	–	–	–	–	–	IC50 [1]: > 50 µM
Cc1ccc([N+](=O)[O-])c(C(=O)OCCC[S+]([O-])c2ccnc3cc(Cl)ccc23)c1 (centres unmarked) [Compound 60, 3-[(7-Chloroquinolin-4-yl)sulfinyl]propyl-5-methyl-2-nitrobenzoate]	8.86 µM	6.06 µM	19.8 µM	7.27 µM	5.81 µM	1.13 µM	7.77 µM	4.26 µM	9.55 µM	29.4 µM	18.1 µM	29 µM	–
[O-][S+](CCO)c1ccnc2cc(Cl)ccc12 (centres unmarked) [Compound 41, 2-[(7-Chloroquinolin-4-yl)sulfinyl]ethanol]	27.8 µM	22.5 µM	24.5 µM	35.1 µM	22.1 µM	4.52 µM	23.5 µM	21.4 µM	34.4 µM	26.5 µM	28.5 µM	33.3 µM	–
COc1ccc(C(=O)OCC[S+]([O-])c2ccnc3cc(Cl)ccc23)cc1[N+](=O)[O-] (centres unmarked) [Compound 48, 2-[(7-Chloroquinolin-4-yl)sulfinyl]ethyl-4-methoxy-3-nitrobenzoate]	16.9 µM	10 µM	24 µM	12.9 µM	18.6 µM	1.42 µM	17 µM	9.03 µM	25 µM	27.8 µM	27.5 µM	29.2 µM	–
COc1cc(C(=O)OCCS(=O)(=O)c2cc[n+]([O-])c3cc(Cl)ccc23)cc(OC)c1OC [Compound 67, 2-[(N-Oxide 7-chloroquinolin-4-yl)sulfonyl]ethyl-3,4,5-trimethoxybenzoate]	6.05 µM	7.87 µM	3.24 µM	8.93 µM	9.23 µM	1.05 µM	11.1 µM	5.19 µM	28.4 µM	5.79 µM	11.9 µM	24.8 µM	–
Cc1cc(C)cc(C(=O)OCCC[S+]([O-])c2ccnc3cc(Cl)ccc23)c1 (centres unmarked) [Compound 61, 3-[(7-Chloroquinolin-4-yl)sulfinyl]propyl-3,5-dimethylbenzoate]	12.7 µM	6.89 µM	22.1 µM	8.35 µM	8.1 µM	1.05 µM	8.26 µM	6.76 µM	10.9 µM	26.1 µM	27.6 µM	30.3 µM	–
Cc1cc(C)cc(C(=O)OCC[S+]([O-])c2ccnc3cc(Cl)ccc23)c1 (centres unmarked) [Compound 50, 2-[(7-Chloroquinolin-4-yl)sulfinyl]ethyl-3,5-dimethylbenzoate]	15.2 µM	7.1 µM	22.3 µM	10 µM	8.57 µM	1.32 µM	7.99 µM	9.58 µM	24 µM	26.9 µM	28.5 µM	30.8 µM	–
Cc1ccc(C)c(C(=O)OCCS(=O)(=O)c2cc[n+]([O-])c3cc(Cl)ccc23)c1 [Compound 71, 2-[(N-Oxide 7-chloroquinolin-4-yl)sulfonyl]ethyl-,5-dimethylbenzoate]	–	–	–	–	–	–	–	–	–	–	–	–	IC50 [1]: > 50 µM
COc1cccc(C(=O)OCCCS(=O)(=O)c2cc[n+]([O-])c3cc(Cl)ccc23)c1OC [Compound 74, 3-[(N-Oxide 7-chloroquinolin-4-yl)sulfonyl]propyl-2,3-dimethoxybenzoate]	–	–	–	–	–	–	–	–	–	–	–	–	IC50 [2]: 2.71 µM; Selectivity for leukemic and colorectal cancer cells compared to MRC-5 ([1]; leukemic and colorectal (with and without p53 deletion) cancer cells vs MRC-5): good selectivity; IC50 [12]: 16.2 µM; IC50 [5]: 5.58 µM; IC50 (U2OS (osteosarcoma)): 5.4 µM; IC50 [6]: 1.41 µM; IC50 [7]: 3.23 µM; IC50 [8]: 4.91 µM; IC50 [9]: 5.35 µM; IC50 [13]: 20.4 µM; IC50 [14]: 10.5 µM; IC50 [15]: 14.9 µM
COc1cccc(C(=O)OCCC[S+]([O-])c2ccnc3cc(Cl)ccc23)c1OC (centres unmarked) [Compound 54, 3-[(7-Chloroquinolin-4-yl)sulfinyl]propyl-2,3-dimethoxybenzoate]	14.1 µM	9.19 µM	25.1 µM	10.1 µM	17.2 µM	1.09 µM	14 µM	7.63 µM	25.8 µM	27.2 µM	26.9 µM	30.4 µM	–
COc1ccccc1C(=O)OCC[S+]([O-])c1ccnc2cc(Cl)ccc12 (centres unmarked) [Compound 47, 2-[(7-Chloroquinolin-4-yl)sulfinyl]ethyl-2-methoxybenzoate]	16.9 µM	11.3 µM	26.1 µM	26.8 µM	19.1 µM	2.74 µM	15.9 µM	11.3 µM	32.2 µM	28.2 µM	30.7 µM	31.2 µM	–
Cc1ccc([N+](=O)[O-])c(C(=O)OCC[S+]([O-])c2ccnc3cc(Cl)ccc23)c1 (centres unmarked) [Compound 49, 2-[(7-Chloroquinolin-4-yl)sulfinyl]ethyl-5-methyl-2-nitrobenzoate]	12.3 µM	7.56 µM	> 50 µM	7.75 µM	11.2 µM	1.34 µM	7 µM	6.4 µM	15.7 µM	> 50 µM	23.5 µM	30.7 µM	–
